The values below come from ChEMBL document CHEMBL4219087, “Investigation of multi-target-directed ligands (MTDLs) with butyrylcholinesterase (BuChE) and indoleamine 2,3-dioxygenase 1 (IDO1) inhibition: The design, synthesis of miconazole analogues targeting Alzheimer's disease” (Bioorg Med Chem, 2018).

In general, IC50 refers to the concentration at which inhibition is half-maximal.

In series [1] the target is Acetylcholinesterase (Electrophorus electricus, UniProt O42275). In words: Inhibition of electric eel AChE using acetylthiocholine iodide as substrate preincubated for 5 mins followed by substrate addition measured after 2 mins by modified Ellman assay.
Sequence of Acetylcholinesterase (O42275 whole entry): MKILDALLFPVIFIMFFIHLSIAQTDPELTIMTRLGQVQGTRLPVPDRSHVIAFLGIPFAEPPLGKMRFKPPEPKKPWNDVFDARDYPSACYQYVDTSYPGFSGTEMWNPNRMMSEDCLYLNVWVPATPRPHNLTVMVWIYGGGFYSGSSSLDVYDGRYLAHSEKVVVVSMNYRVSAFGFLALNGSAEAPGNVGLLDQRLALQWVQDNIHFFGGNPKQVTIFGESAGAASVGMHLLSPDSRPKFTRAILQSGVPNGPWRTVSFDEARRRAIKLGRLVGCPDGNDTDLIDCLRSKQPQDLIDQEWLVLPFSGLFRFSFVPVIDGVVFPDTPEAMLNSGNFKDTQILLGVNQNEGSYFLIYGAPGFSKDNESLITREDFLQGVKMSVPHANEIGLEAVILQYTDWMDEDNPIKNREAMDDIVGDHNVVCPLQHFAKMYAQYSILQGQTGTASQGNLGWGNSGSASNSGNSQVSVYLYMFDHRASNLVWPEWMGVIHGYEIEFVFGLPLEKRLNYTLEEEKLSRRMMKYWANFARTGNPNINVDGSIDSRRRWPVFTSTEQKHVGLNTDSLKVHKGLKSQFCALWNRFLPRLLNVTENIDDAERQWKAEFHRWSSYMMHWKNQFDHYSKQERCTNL
For series [2], the target named is Cholinesterase (Equus caballus, UniProt P81908). Kind of series: Inhibition of equine serum BChE using butyrylthiocholine iodide as substrate preincubated for 5 mins followed by substrate addition measured after 2 mins by modified Ellman assay. Background: Ellman's reagent forms a yellow product with free thiols.
Sequence of Cholinesterase (P81908 whole entry): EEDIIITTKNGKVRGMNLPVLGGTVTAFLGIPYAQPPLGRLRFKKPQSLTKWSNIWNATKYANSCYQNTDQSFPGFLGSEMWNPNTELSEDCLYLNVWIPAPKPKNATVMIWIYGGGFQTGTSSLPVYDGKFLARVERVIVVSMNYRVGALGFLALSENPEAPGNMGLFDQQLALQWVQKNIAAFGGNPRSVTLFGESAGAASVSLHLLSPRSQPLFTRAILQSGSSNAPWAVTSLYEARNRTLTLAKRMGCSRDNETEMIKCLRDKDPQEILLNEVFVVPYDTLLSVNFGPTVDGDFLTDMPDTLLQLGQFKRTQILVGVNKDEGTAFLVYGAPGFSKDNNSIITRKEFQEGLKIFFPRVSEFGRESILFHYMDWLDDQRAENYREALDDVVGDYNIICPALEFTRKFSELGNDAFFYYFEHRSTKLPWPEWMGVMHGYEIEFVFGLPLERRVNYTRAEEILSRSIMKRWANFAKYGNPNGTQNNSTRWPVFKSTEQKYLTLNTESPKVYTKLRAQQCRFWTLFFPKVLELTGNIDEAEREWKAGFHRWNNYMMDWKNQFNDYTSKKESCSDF
A short description of series [3]: Selectivity index, ratio of IC50 for electric eel AChE to IC50 for equine serum BChE.
In series [4] the target is Indoleamine 2,3-dioxygenase 1 (Homo sapiens, UniProt P14902). In words: Inhibition of human recombinant IDO1 using L-tryptophan as substrate after 30 mins by fluorimetric analysis.
Sequence of Indoleamine 2,3-dioxygenase 1 (P14902 whole entry): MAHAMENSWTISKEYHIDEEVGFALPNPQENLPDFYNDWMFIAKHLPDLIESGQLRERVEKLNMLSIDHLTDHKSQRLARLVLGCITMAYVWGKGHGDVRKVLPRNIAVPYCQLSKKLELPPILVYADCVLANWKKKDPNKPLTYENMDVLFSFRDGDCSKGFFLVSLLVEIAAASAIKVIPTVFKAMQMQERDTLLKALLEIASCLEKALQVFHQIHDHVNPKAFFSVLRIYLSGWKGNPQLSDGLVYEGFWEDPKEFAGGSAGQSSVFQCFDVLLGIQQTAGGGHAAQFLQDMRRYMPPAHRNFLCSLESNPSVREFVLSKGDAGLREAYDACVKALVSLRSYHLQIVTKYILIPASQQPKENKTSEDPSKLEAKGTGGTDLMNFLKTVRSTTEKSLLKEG
For series [5], the system named is Mus musculus. Kind of series: Reversal of scopolamine-induced cognitive function impairment in ICR mouse assessed as escape latency time at 15 mg/kg, po dosed 30 mins prior to scopolamine treatment by Morris water maze test (reference value: 40.5 sec). It is filed as functional.
The subject of series [6] is Mus musculus. In words: Hepatotoxicity in ICR mouse assessed as serum ALT level at 15 mg/kg, ig after 8 hrs. It is filed as toxicity, organism-based. Conditions: in vivo, po.
In series [7] the test system is Mus musculus. In words: Hepatotoxicity in ICR mouse assessed as serum ALT level at 15 mg/kg, ig after 22 hrs. It counts as toxicity, organism-based. Conditions: in vivo, po.
Series [8] concerns Mus musculus. In words: Hepatotoxicity in ICR mouse assessed as serum ALT level at 15 mg/kg, ig after 36 hrs. It is filed as toxicity, organism-based. Conditions: in vivo, po.
The test system of series [9] is Mus musculus. Kind of series: Hepatotoxicity in ICR mouse assessed as serum AST level at 15 mg/kg, ig after 8 hrs. Conditions: in vivo, po. It is filed as toxicity, organism-based.
Series [10] concerns Mus musculus. In words: Hepatotoxicity in ICR mouse assessed as serum AST level at 15 mg/kg, ig after 22 hrs. It is filed as toxicity, organism-based. As to conditions: in vivo, po.
Series [11] concerns Mus musculus. Kind of series: Hepatotoxicity in ICR mouse assessed as serum AST level at 15 mg/kg, ig after 36 hrs. As to conditions: in vivo, po. It is filed as toxicity, organism-based.
For series [12], the system named is Mus musculus. Kind of series: Hepatotoxicity in ICR mouse assessed as pericentral necrosis of hepatocytes surrounding intermediate and periportal zones at 15 mg/kg, ig after 30 hrs by hematoxylin and eosin staining-based assay. It is filed as toxicity, organism-based. Conditions: in vivo, po.
The subject of series [13] is Mus musculus. Kind of series: Hepatotoxicity in ICR mouse assessed as fatty degeneration of hepatocytes surrounding intermediate and periportal zones at 15 mg/kg, ig after 30 hrs by hematoxylin and eosin staining-based assay. It is filed as toxicity, organism-based. As to conditions: in vivo, po.

Structures are written as SMILES.

In the case of `Clc1ccc(C(Cn2ccnc2)OCc2ccc(Br)cc2)c(Cl)c1` (centres undefined), the concentration for half-maximal inhibition (IC50) was 19.5 µM in [1], 13.1 µM in series [2] and 5.7 µM in series [4]. In [3], the Ratio IC50 is 1.5.
In the case of `Fc1cccc(F)c1COC(Cn1ccnc1)c1ccc(Cl)cc1Cl` (centres undefined), the results for the half-inhibitory concentration (IC50) in series [1], in [2] and in [4] were 176 µM, 19.2 µM and 4.2 µM, respectively. In addition, the Ratio IC50 in series [3] stood at 9.2.
With `Cc1ccc(COC(Cn2ccnc2)c2ccc(Cl)cc2Cl)cc1C` (centres undefined), the figures for the half-maximal inhibitory concentration (IC50) in series [1], in [2] and in series [4] were 17.3 µM, 11.2 µM and 2.2 µM, respectively. For the same molecule, in [3], the Ratio IC50 amounted to 1.6.
As to `COc1cccc(COC(Cn2ccnc2)c2ccc(Cl)cc2Cl)c1` (centres undefined), the IC50 in [1] was found to be 81.3 µM; in series [2], 8.3 µM; in series [4], 2.8 µM. For the same molecule, in series [3], the Ratio IC50 worked out at 9.9. The Time in series [5] is 19.7 s. Besides, the Activity entry in series [6], in [7], in [8], in series [9], in [10] and in series [11] was “Non-Toxic” each time. Moreover, the Activity result in series [12] and in [13] was “Non-Toxic” throughout.
With `CC(C)(C)c1ccc(COC(Cn2ccnc2)c2ccc(Cl)cc2Cl)cc1` (centres undefined), the figures for the IC50 in series [1], in [2] and in [4] were 24.3 µM, 46.3 µM and 4.4 µM, respectively. For the same molecule, the Ratio IC50 in series [3] was determined as 0.5.
Turning to `Nc1c2c(nc3ccccc13)CCCC2` [TACRINE], the Time in [5] amounted to 25.9 s.
On to `Cc1cccc(COC(Cn2ccnc2)c2ccc(Cl)cc2Cl)c1` (centres undefined), for which the half-inhibitory concentration (IC50) in series [1] worked out at 30.7 µM; in series [2], 14.6 µM; in series [4], 1.2 µM. Further, the Ratio IC50 in series [3] turned out to be 2.1.
With `Cc1ccc(COC(Cn2ccnc2)c2ccc(Cl)cc2Cl)cc1` (centres undefined), the half-maximal inhibitory concentration (IC50) in [1] is 26.9 µM; in [2], 10.9 µM; in series [4], 2 µM. Further, the Ratio IC50 in series [3] was 2.5.
As for `COc1ccc(COC(Cn2ccnc2)c2ccc(Cl)cc2Cl)cc1` (centres undefined), the IC50 is 73.1 µM in [1], 16.5 µM in series [2] and 1 µM in series [4]. Also, in series [3], the Ratio IC50 was 4.4. The Time in series [5] is on record as 13.4 s. Also, the Activity result in series [6], in series [7], in series [8], in series [9], in [10] and in series [11] was “Non-Toxic” in each case. The Activity entry in series [12] and in series [13] was “Non-Toxic” throughout.
Take `Fc1ccc(COC(Cn2ccnc2)c2ccc(Cl)cc2Cl)cc1` (centres undefined): the concentration for half-maximal inhibition (IC50) in series [1] stood at 33 µM; in series [2], 14.8 µM; in series [4], 4 µM. For the same molecule, the Ratio IC50 in series [3] came to 2.3.
The like results for `Cc1ccccc1COC(Cn1ccnc1)c1ccc(Cl)cc1Cl` (centres undefined) were, in that order, 37.5 µM, 18.4 µM, 2.2 µM and 2.
